Reference: patent US12319690B2, “Selective CDK 4/6 inhibitor cancer therapeutics” (LUNELLA BIOTECH, INC., priority 2019, dated 2025)

How the values were obtained:
Type in all cases: cell-based, human
[1] = tested on: hTERT-BJ1 (immortalized non-tumoral fibroblast cell line); experiment: 2D-cell viability assay (Hoechst staining), hTERT-BJ1 monolayer; settings: for IC50: Homo sapiens, Fibroblast, 2D-cell viability assay, hTERT-BJ1; for SI (BJ1/MCF7 monolayer): cancer selectivity index, ratio between IC50 values in cell viability assays against MCF7 and hTERT-BJ1
Text: (§1) As used in the tables, “IC50 (MCF7 mammosphere)” refers to the half maximal inhibitory concentration in the 3D-mammosphere assay, using the ER+ breast cancer cell line, MCF7. The term “IC50 (MCF7 monolayer)” refers to the half maximal inhibitory concentration in the 2D-cell viability assay, using the ER+ breast cancer cell line, MCF7. The term “IC50 (BJ1 monolayer)” refers to the half maximal inhibitory concentration in the 2D-cell viability assay, using the immortalized non-tumoral fibroblast cell line, hTERT-BJ1. The term “SI (mammosphere/monolayer MCF7)” refers to the mammosphere selectivity index, a ratio between IC50 values comparing the biological activity in the 3D and 2D assays against MCF7. The term “SI (BJ1/MCF7 monolayer)” refers to the cancer selectivity index, a ratio between IC50 values comparing the biological activity in the cell viability assays against MCF7 and hTERT-BJ1. A Hoechst-based viability assay was used to characterize the selectivity of compounds according to the present approach, for the preferential targeting of cancer cells. Briefly, MCF7 cell monolayers were treated with a compound at concentrations ranging from 1 μM to 100 μM, for a period of one day. Cell viability was assessed using Hoechst 33342, a nuclear dye that stains DNA in live cells. The viability of normal human fibroblasts (hTERT-BJ1) treated with the compounds described herein was also assessed in parallel. Quantitation was performed with a plate-reader.

[2] = tested on: MCF7 cell line (ER+ breast cancer); experiment: 3D-mammosphere formation assay; settings: for IC50: Homo sapiens, MCF7, 3D-mammosphere assay; for SI (mammosphere/monolayer MCF7): mammosphere selectivity index, ratio between IC50 values in the 3D and 2D assays against MCF7; for inhibition of MCF7 cells in the mammosphere assay compared to parent compound: concentrations from 1 μM to 100 μM
Text: As used in the tables, “IC50 (MCF7 mammosphere)” refers to the half maximal inhibitory concentration in the 3D-mammosphere assay, using the ER+ breast cancer cell line, MCF7. The term “IC50 (MCF7 monolayer)” refers to the half maximal inhibitory concentration in the 2D-cell viability assay, using the ER+ breast cancer cell line, MCF7. The term “IC50 (BJ1 monolayer)” refers to the half maximal inhibitory concentration in the 2D-cell viability assay, using the immortalized non-tumoral fibroblast cell line, hTERT-BJ1. The term “SI (mammosphere/monolayer MCF7)” refers to the mammosphere selectivity index, a ratio between IC50 values comparing the biological activity in the 3D and 2D assays against MCF7. The term “SI (BJ1/MCF7 monolayer)” refers to the cancer selectivity index, a ratio between IC50 values comparing the biological activity in the cell viability assays against MCF7 and hTERT-BJ1.
FIGS. 1-3 are dose-response curves for various compounds described herein, using the mammosphere assay. The assay was performed using the MCF7 cell line. The curves are plotted as a mean of two independent experiments, and the standard deviation for each point is represented by vertical bars. The inhibition percentage is shown as a function of the log of the concentration (μM). […] Similar effects are expected for compounds having the general formula [1D].
Mammosphere formation assay: A single cell suspension was prepared using enzymatic (1× Trypsin-EDTA, Sigma Aldrich, cat. #T3924), and manual disaggregation (25 gauge needle). Five thousand cells were plated with in mammosphere medium (DMEM-F12/B27/20 ng/ml EGF/PenStrep), under non-adherent conditions, in six wells plates coated with 2-hydroxyethylmethacrylate (poly-HEMA, Sigma, cat. #P3932). Cells were grown for 5 days and maintained in a humidified incubator at 37° C. at an atmospheric pressure in 5% (v/v) carbon dioxide/air. After 5 days, 3D spheroids with a diameter greater than 50 μm were counted using a microscope, fitted with a graticule eye-piece, and the percentage of cells which formed spheroids was calculated and normalized to one (1=100% MFE; mammosphere forming efficiency). Mammosphere assays were performed in triplicate and repeated three times independently.

[3] = tested on: MCF7 cell line (ER+ breast cancer); experiment: 2D-cell viability assay (Hoechst staining), MCF7 monolayer; settings: for IC50: Homo sapiens, MCF7, 2D-cell viability assay, MCF7
Text: as §1

SMILES	potency on hTERT-BJ1 compared to Compound [1C] (dose-response curves) ([1]; Hoechst staining assay, hTERT-BJ1, FIG. 7)	IC50 [1] [nM]	SI (BJ1/MCF7 monolayer) [1]	IC50 ([2]; MCF7) [nM]	SI (mammosphere/monolayer MCF7) [2]	IC50 [3] [nM]	inhibition of cell propagation ([2]; at concentrations as low as 1 μM, preliminary laboratory evaluations) [%]	inhibition of MCF7 cells in the mammosphere assay compared to parent compound [2]	fold improvement in potency in the 3D-mammosphere assay compared to the parent compound ([2]; vs. Ribociclib, MCF7) [fold]	potency against MCF7 cells compared to parent compound (dose-response curves) ([3]; Hoechst staining assay, MCF7, FIG. 4 (FIG. 1 cited in same passage))	IC50 ([1]; Table 3, unit inferred) [nM]	non-toxic in the 2D-cell viability assay up to a concentration ([3]; MCF7 monolayer) [µM]
CN(C)C(=O)c1cc2cnc(Nc3ccc(N4CCNCC4)cn3)nc2n1C1CCCC1 [Ribociclib, 7-cyclopentyl-N,N-dimethyl-2-[(5-piperazin-1-ylpyridin-2-yl)amino]pyrrolo[2,3-d]pyrimidine-6-carboxamide]	more potent at most concentrations tested	> 90000	>45	~1500	1.3	~2000	–	–	–	–	–	–
CCCCCCCCCCCCCC(=O)N1CCN(c2ccc(Nc3ncc4cc(C(=O)N(C)C)n(C5CCCC5)c4n3)nc2)CC1 [Compound [1C], 7-cyclopentyl-N,N-dimethyl-2-[[5-(4-tetradecanoylpiperazin-1-yl)-2-pyridyl]amino]pyrrolo[2,3-d]pyrimidine-6-carboxamide]	–	> 90000	>45	~200	10	~2000	~100	remarkably improved inhibition	7	more potent	–	–
CCN1CCN(Cc2ccc(Nc3ncc(F)c(-c4cc(F)c5nc(C)n(C(C)C)c5c4)n3)nc2)CC1 [Abemaciclib]	–	–	2.7	< 40	>50	11000	–	–	–	–	30000 ± 6000	–
CC(=O)c1c(C)c2cnc(Nc3ccc(N4CCNCC4)cn3)nc2n(C2CCCC2)c1=O [Palbociclib, 6-acetyl-8-cyclopentyl-5-methyl-2-(5-piperazin-1-yl-pyridin-2-ylamino)-8H-pyrido[2,3-d]pyrimidin-7-one]	–	> 90000	>900	~200	non-selective	~100	–	–	–	–	–	–
CCCCCCCCCCCCCC(=O)N1CCN(c2ccc(Nc3ncc4c(C)c(C(C)=O)c(=O)n(C5CCCC5)c4n3)nc2)CC1 [Compound [2C], 6-acetyl-8-cyclopentyl-5-methyl-2-[[5-(4-tetradecanoylpiperazin-1-yl)-2-pyridyl]amino]pyrido[2,3-d]pyrimidin-7-one]	–	> 90000	–	~5100	>5	> 30000	–	remarkably improved inhibition	–	–	–	≤ 30
